Here are results for 5 molecules from patent US20240350458A1, “14-3-3 PROTEIN MODULATORS AS ANTITUMOR AGENTS” (priority 2021, published 2024).

What all share (type): cell-based
One assay relates to 8505c. The experiment in a line: MTT assay, ATC cell line, fixed concentrations. The conditions noted are these: Homo sapiens, 48 h, read-out: % of proliferating cells; for viability at 0.02 µM: 20 nM; for viability at 0.1 µM: 100 nM; for viability at 20 µM: 20000 nM. As for the experimental part: (§1) The compounds FC91, SB14, SB17, SB18, SB19, SB20, SB21 and FC85 were employed in a cellular screening at fixed concentration ranging from 20 nM to 20 μM.
(§2) Table 2: Four human thyroid cancer cell lines were incubated with FC91, SB14, SB17, SB18, SB19, SB20A, SB20b, SB21 and FC85 for 48 h at fixed concentration of 20,100 and 20000 nM and then assayed with MTT. Data are reported as % of proliferating cells.

The next assay concerns FRO. The experiment in a line: MTT assay, ATC cell line, fixed concentrations. The conditions noted are these: Homo sapiens, 48 h, read-out: % of proliferating cells; for viability at 0.02 µM: 20 nM; for viability at 0.1 µM: 100 nM; for viability at 20 µM: 20000 nM. As for the experimental part:
as §1, §2
(In general: Tetrazolium assays rely on reduction of a dye to a coloured formazan, in cell work by metabolically active cells.)

The subject of a further assay is Nthory. The experiment in a line: MTT assay, ATC cell line, fixed concentrations. The following applies: Homo sapiens, 48 h, read-out: % of proliferating cells; for viability at 0.02 µM: 20 nM; for viability at 0.1 µM: 100 nM; for viability at 20 µM: 20000 nM. How it is done:
as §1, §2

The subject of a further assay is SW1736. The experiment in a line: MTT assay, ATC cell line, fixed concentrations. The conditions noted are these: Homo sapiens, SW-1736, 48 h, read-out: % of proliferating cells; for viability at 0.02 µM: SW1736, 20 nM; for viability at 0.1 µM: SW1736, 100 nM; for viability at 20 µM: SW1736, 20000 nM. As for the experimental part:
as §1, §2

Assay [1] concerns four human ATC cell lines. The experiment in a line: Cellular screening in four human ATC cell lines.
[2] abbreviates: Homo sapiens, in one (i.e. SB17) to four (i.e. SB20b) cell lines of anaplastic thyroid cancer, read-out: IC50 value in ATC cell lines.

Read-outs that look alike come from different tables or passages of the source.

Broadly, the IC50 is the point on the concentration scale where inhibition reaches its midpoint. With `Cc1ccc(S(=O)(=O)Nc2ccc3c(c2)/C(=C/c2cnc(C)[nH]2)C(=O)N3)cc1` [SB14, (Z)-4-methyl-N-(3-((2-methyl-1H-imidazol-5-yl)methylene)-2-oxoindolin-5-yl)benzenesulfonamide], the viability at 0.02 µM in the assay on 8505c was found to be 97%; with FRO it was 92%; in the assay with Nthory it was 95%; with SW1736, 84%. Moreover, the viability at 0.1 µM is 128% in the assay with 8505c, 113% with FRO, 77% in the assay with Nthory and 102% in the assay on SW1736. In addition, the viability at 20 µM in the assay with 8505c was 65%; in the assay on FRO, 57%; with Nthory, 41%; in the assay with SW1736, 70%. Besides, the IC50 in assay [1] (setting [2]) lay within 100 to 20000 nM.
Turning to `Cc1ccc(S(=O)(=O)Nc2ccc3c(c2)/C(=C/c2ccn[nH]2)C(=O)N3)cc1` [SB17, (Z)—N-(3-((1H-pyrazol-5-yl)methylene)-2-oxoindolin-5-yl)-4-methylbenzenesulfonamide], the viability at 0.02 µM in the assay on 8505c was 90%; in the assay with FRO, 80%; in the assay on Nthory, 89%; with SW1736 it was 81%. The viability at 0.1 µM came to 119% in the assay on 8505c, 113% in the assay on FRO, 73% in the assay with Nthory and 99% in the assay on SW1736. Moreover, the viability at 20 µM in the assay on 8505c amounted to 59%; in the assay with FRO, 55%; in the assay with Nthory it was 48%; in the assay with SW1736 it was 63%. The IC50 in assay [1] (setting [2]) was 100 to 20000 nM.
As to `Cc1ccc(S(=O)(=O)Nc2ccc3c(c2)/C(=C/c2cn[nH]c2)C(=O)N3)cc1` [SB18, (E/Z)—N-(3-((1H-pyrazol-4-yl)methylene)-2-oxoindolin-5-yl)-4-methylbenzenesulfonamide], the viability at 0.02 µM with 8505c amounted to 80%; with FRO it was 77%; with Nthory, 54%; in the assay on SW1736 it was 77%. Further, the viability at 0.1 µM with 8505c turned out to be 48%; with FRO it was 54%; with Nthory, 58%; in the assay with SW1736, 64%. The viability at 20 µM in the assay with 8505c stood at 42%; in the assay on FRO it was 56%; in the assay on Nthory, 34%; in the assay on SW1736, 59%. The IC50 is 100 to 20000 nM in assay [1] (setting [2]) and 100 to 200 nM in assay [1] (human ATC cell lines, read-out: IC50 values in ATC cell lines).
In the case of `Cc1ccc(S(=O)(=O)Nc2ccc3c(c2)C(=Cc2cccnc2N)C(=O)N3)cc1` [SB20, N-(3-((2-aminopyridin-3-yl)methylene)-2-oxoindolin-5-yl)-4-methylbenzenesulfonamide], in assay [1] (setting [2]), the IC50 was 100 to 20000 nM.
Consider `Cc1ccc(S(=O)(=O)Nc2ccc3c(c2)C(=Cc2cccnc2N)C(=O)N3)cc1` [SB20A, N-(3-((2-aminopyridin-3-yl)methylene)-2-oxoindolin-5-yl)-4-methylbenzenesulfonamide], for which the viability at 0.02 µM with 8505c came to 78%; in the assay with FRO it was 85%; with Nthory, 99%; with SW1736 it was 82%. Moreover, the viability at 0.1 µM in the assay on 8505c was 99%; with Nthory, 77%; with SW1736, 89%. In addition, the viability at 20 µM in the assay on 8505c amounted to 35%; in the assay with Nthory it was 63%.
